Reference: publication PMC3173955, “Antifungal Activities of Peptides Derived from Domain 5 of High-Molecular-Weight Kininogen” (International Journal of Peptides, 2011)
Peptide text beside a SMILES is read from it.

Assays:
[1] = system: M. furfur ATCC 44342; format: cell-based, Malassezia furfur; settings: for MIC (concentration yielding at least 95% inhibition of fungal growth): ATCC 44342, 24 h
Experimental: Malassezia furfur ATCC 44342 (CCUG 24230) was obtained from the Department of Bacteriology at Skåne University Hospital. The antifungal activity was tested in an assay described by Lopez-[…] et al., but with some minor modifications. Cells were cultured for 2 days at 37 °C in 10 mL medium containing 4% Bacto Malt Extract (Becton, Dickinson and Company, Md, USA), 1% glucose (VWR international), 1% Tween 80 (Sigma-Aldrich, St. Louis, Mo, USA) and 0.6% Bacto Peptone (Becton, Dickinson and Company, Md, USA). Cells were then washed in 1 mM sodium phosphate buffer, pH 7.4. M. furfur cells were grown in sterile 96-well microtiter plates (Costar, Corning Incorporated, Corning, USA) in a total volume of 100 μL, containing 60 μL of 1 mM sodium phosphate buffer, pH 7.4, 20 μL of culture medium, 10 μL of a 10x stock solution of the synthetic peptides, and a 10x stock solution of the fungal cell suspension, resulting in a final concentration of 1-2 × 10^5 cells/mL. Chloramphenicol was added to each well (16 μg/ml) to avoid contamination. The cells were incubated at 30°C for 24 h. To quantify the fungicidal activity, serial dilutions of the incubation mixture were plated onto agar plates and incubated 72 h at 37°C, and the number of cfu thereafter was determined by counting visible colonies. The minimal inhibitory concentration (MIC) was defined as the concentration which yielded at least 95% inhibition of fungal growth.

[2] = system: C. parapsilosis ATCC 90018; format: cell-based, Candida parapsilosis
Experimental: C. albicans ATCC 90028 and C. parapsilosis ATCC 90018 were obtained from the Department of Bacteriology Lund at Skåne University Hospital. Cells were precultured overnight on Sabouraud-dextrose-agar (Difco, Detroit, Mich) at 28°C, inoculated in 10 mL yeast extract-peptone-dextrose (YPD) broth (Sigma-Aldrich, St. Louis, Mo USA) at 28°C, and grown to mid-logarithmic phase. The cells were washed three times and diluted in 10 mM Tris, pH 7.4. Fifty μL of a suspension containing 1 × 10^6 fungal colony-forming units (cfu)/mL was incubated at 28°C for two hours with rD5, HKH20 at concentrations ranging from 0.3 μM to 60 μM, or the peptides HKH20, GKH17, GKH17WWW, and GKH17WWWWW at a concentration of 30 μM. To quantify the fungicidal activity, serial dilutions of the incubation mixture were plated onto Sabouraud-dextrose-agar plates (Difco, Detroit, Mich) and incubated for 48 h at 28°C, and the number of cfu were thereafter determined by counting visible colonies. Activity of 30 μM HKH20, GKH17, GKH17WWW, and GKH17WWWWW peptides against Candida was also tested in physiological salt conditions (0.15 M NaCl in 10 mM Tris, pH 7.4) in presence of 20% as well as 50% human plasma, and 50% human serum (in 0.15 M NaCl, 10 mM Tris, pH 7.4) (Figure 3). […]

[3] = system: C. parapsilosis ATCC 90018; test: Radial diffusion assay (RDA); format: cell-based, Candida parapsilosis; settings: 6 μl of peptide per well (Figure 2(b))
Experimental: Radial diffusion assay (RDA) was performed as described by Lehrer et al. with some minor modifications. Candida was grown for 16 h at 28°C in 10 mL YPD to obtain yeast form organisms. The culture was centrifuged at 2000 ×g for 10 min then washed three times with 10 mM Tris, pH 7.4. A volume containing 1 × 10^5 cfu was added to 5 mL of previously autoclaved, 42°C, underlay agarose gel that contained 1.5 mg of Tryptic Soy Broth (TSB) base, 50 mg of low-electroendosmosistype (Low-EEO) agarose type I (A-6013-25G) (Sigma-Aldrich Inc, St. Louis, Mo, USA), and 1 μL of Tween 20 (0.02% w/v) (Sigma Chemical Co.) dissolved in 10 mM Tris, pH 7.4. The fungi were directly dispensed into the agar and mixed with a vortex mixer for 10 seconds and then quickly poured out into a petri dish, 85 mm in diameter. Wells, 4 mm in diameter, were punched, and each well was then filled up with 6 μL of test sample. After incubation at 35–37°C for 3 h, 5 mL of overlay agarose gel, consisting of 300 mg TSB, 50 mg Low-EEO agarose dissolved in distilled sterilized water, was poured out on top of the underlay gel. The clear zone surrounding the wells, indicating antifungal activity, was measured after 18–24 h of incubation at 28°C. HMWK degradation products were tested for RDA inhibitory effects (Figure 1(b)). […]

[4] = system: C. albicans ATCC 90028; test: Radial diffusion assay (RDA), low salt; format: cell-based, Candida albicans; settings: 6 μL at 100 μM; for Antifungal activity in RDA: low salt conditions (Figure 2(c))
Experimental: Radial diffusion assay (RDA) was performed as described by Lehrer et al. with some minor modifications. Candida was grown for 16 h at 28°C in 10 mL YPD to obtain yeast form organisms. The culture was centrifuged at 2000 ×g for 10 min then washed three times with 10 mM Tris, pH 7.4. A volume containing 1 × 10^5 cfu was added to 5 mL of previously autoclaved, 42°C, underlay agarose gel that contained 1.5 mg of Tryptic Soy Broth (TSB) base, 50 mg of low-electroendosmosistype (Low-EEO) agarose type I (A-6013-25G) (Sigma-Aldrich Inc, St. Louis, Mo, USA), and 1 μL of Tween 20 (0.02% w/v) (Sigma Chemical Co.) dissolved in 10 mM Tris, pH 7.4. The fungi were directly dispensed into the agar and mixed with a vortex mixer for 10 seconds and then quickly poured out into a petri dish, 85 mm in diameter. Wells, 4 mm in diameter, were punched, and each well was then filled up with 6 μL of test sample. After incubation at 35–37°C for 3 h, 5 mL of overlay agarose gel, consisting of 300 mg TSB, 50 mg Low-EEO agarose dissolved in distilled sterilized water, was poured out on top of the underlay gel. The clear zone surrounding the wells, indicating antifungal activity, was measured after 18–24 h of incubation at 28°C. HMWK degradation products were tested for RDA inhibitory effects (Figure 1(b)). Human leukocyte (neutrophil) elastase (HLE) and freeze-thaw-disrupted polymorphonuclear neutrophils (PMNs) at equivalent concentrations as used in the HMWK degradation were incubated at 37°C for 60 minutes and added as controls (Figure 1(b)).

[5] = Liposome leakage assay (carboxyfluorescein release); settings: DOPC/sterol 60/40 mol/mol, 10 μM lipid in 10 mM Tris, 5 mM glucose, pH 7.4, 37°C, CF fluorescence at 520 nm, at least duplicate (Figure 4)
From the text: The liposomes investigated were zwitterionic DOPC/cholesterol (60/40 mol/mol) or DOPC/ergosterol (60/40 mol/mol). DOPC (1,2-Dioleoyl-sn-Glycero-3-Phosphatidylcholine) was from Avanti Polar Lipids (Alabaster, USA) and of >99% purity, while ergosterol and cholesterol (>99% purity) were from Sigma-Aldrich (St. Louis, USA). Due to the long, symmetric, and unsaturated acyl chains of DOPC, several methodological advantages are reached. In particular, membrane cohesion is good, which facilitates very stable unilamellar liposomes, allowing detailed values on leakage to be obtained. The lipid mixtures were dissolved in chloroform, after which solvent was removed by evaporation under vacuum overnight. Subsequently, 10 mM Tris buffer, pH 7.4, was added together with 0.1 M carboxyfluorescein (CF) (Sigma, St. Louis, USA). After hydration, the lipid mixture was subjected to eight freeze-thaw cycles consisting of freezing in liquid nitrogen and heated to 60°C. Unilamellar liposomes of about Ø140 nm were generated by multiple extrusions through polycarbonate filters (pore size 100 nm) mounted in a LipoFast miniextruder (Avestin, Ottawa, Canada) at 22°C. […] CF release from the liposomes was determined by monitoring the emitted fluorescence at 520 nm from a liposome dispersion (10 μM lipid in 10 mM Tris, 5 mM glucose, pH 7.4). […]

## NCCCC[C@H](NC(=O)[C@H](Cc1c[nH]c2ccccc12)NC(=O)CNC(=O)[C@H](CC(N)=O)NC(=O)[C@H](Cc1c[nH]cn1)NC(=O)[C@H](CCCCN)NC(=O)CNC(=O)[C@H](CC(N)=O)NC(=O)[C@H](CCCCN)NC(=O)[C@H](CCCCN)NC(=O)CNC(=O)[C@H](CCCCN)NC(=O)[C@H](CC(N)=O)NC(=O)[C@H](CCCCN)NC(=O)[C@H](Cc1c[nH]cn1)NC(=O)[C@H](CCCCN)NC(=O)CN)C(=O)O [GKH17] (H-GKHKNKGKKNGKHNGWK-OH)
[1]
  MIC (concentration yielding at least 95% inhibition of fungal growth): 5 to 10 µM

## NCCCC[C@H](NC(=O)CNC(=O)[C@H](CC(N)=O)NC(=O)[C@H](CCCCN)NC(=O)[C@H](CCCCN)NC(=O)CNC(=O)[C@H](CCCCN)NC(=O)[C@H](CC(N)=O)NC(=O)[C@H](CCCCN)NC(=O)[C@H](Cc1c[nH]cn1)NC(=O)[C@H](CCCCN)NC(=O)CNC(=O)[C@H](Cc1c[nH]cn1)NC(=O)CNC(=O)[C@H](Cc1c[nH]cn1)NC(=O)CNC(=O)[C@H](Cc1c[nH]cn1)NC(=O)[C@H](CCCCN)NC(=O)[C@@H](N)Cc1c[nH]cn1)C(=O)N[C@@H](Cc1c[nH]cn1)C(=O)O [HKH20] (H-HKHGHGHGKHKNKGKKNGKH-OH; N-terminus and C-terminus assumed)
[2]; 0.3 μM to 60 μM, 1 × 10^6 cfu/mL, 2 h at 28°C, 10 mM Tris pH 7.4 (Figure 2(a))
  Antifungal activity in viable count assay: potent antifungal activity
[2]; ATCC 90018, 48 h, 30 μM, pH 7.4
  Candida cells killed (time-dependent killing): > 80%
[3]
  Inhibitory activity in RDA compared with reference peptides: significantly higher inhibitory activity on Candida, when compared with LL-37
[4]
  Antifungal activity in RDA: showed antifungal activity
[4]; low salt, P < 0.05 (Figure 2(c))
  Inhibitory activity in RDA in comparison to LL-37: significantly more potent inhibitory activity on Candida, in comparison to LL-37
[1]; 10 μM or 30 μM, 24 h (Figure 2(e))
  Antifungal activity against M. furfur at fixed concentrations: antifungal at 10 and 30 μM
[1]
  MIC (concentration yielding at least 95% inhibition of fungal growth): 2.5 to 5 µM

## GGHVLDHGHKHKHGHGHGKH [GGH20]
[4]
  Antifungal activity in RDA: showed antifungal activity

## GKHKNKGKKNGKHNGWKWWW [GKH17WWW, GKH17 hydrophobically end-tagged with three W residues at the C-terminal]
[5]
  Membrane-disruptive potency, ergosterol- versus cholesterol-containing liposomes: higher for ergosterol-containing liposomes than for cholesterol-containing ones
